The source of these data is US20230114143A1, “METHOD OF TREATING THE SCALP” (Conopco, Inc., d/b/a UNILEVER, priority 2020, published 2023).

Where a name gives a salt, the structure may show the parent alone.

For assay [1], the system named is ex vivo human skin explants. As to the kind of experiment: RNA sequencing gene expression in NativeSkin ex vivo human skin explants treated topically with piroctone olamine. Format: cell-based. The settings on record: 24 hours. As to the method: Human ex vivo skin model production and piroctone olamine treatment were conducted by Genoskin (France). NativeSkin models of 15 mm diameter ex vivo human skin explants with silicon rings were produced from three donors and cultured in NativeSkin culture medium under 5% CO2 humidified atmosphere in 37° C. Skin explants were treated topically with 50 ul of solution containing 30 uM piroctone olamine in PBS with 1% ethanol (Group 1, n=3), or control PBS solution containing 1% ethanol (Group 2, n=3), and were incubated for 24 hours. Following one day of topical treatment, piroctone olamine and control solutions were removed using cotton swabs and each model was unmolded from silicon ring and re-punch at 12 mm diameter. Half of each skin biopsy was processed for RNA using OMNI-TH Rotor Stator tissue homogeniser and Qiagen RNeasy Fibrous Tissue RNA Mini Kit according to manufacturer’s instructions. RNA sequencing was used for gene expression analysis. Lexogen QuantSeq3′ FWD libraries were prepared from RNA samples and sequenced via single read (1x75 bp) performed using NextSeq 500/550 Mid-Output Kit on the NextSeq 500 Illumina platform. FASTQ data files were then uploaded to the BlueBee genomic platform and read-trimming, alignment, and read count were performed using QuantSeq data processing pipeline. Differential gene expression analysis for Group 1/Group 2 comparison was run in Bluebee genomic platform using QuantSeq DE pipeline (FDR corrected p≤0.05).

Assay [2] concerns differentiated keratinocytes. As to the kind of experiment: Microarray gene expression in differentiated primary human epidermal keratinocytes dosed with piroctone olamine. Type of assay: cell-based. The following applies: 7.5 µM, 24 hours. As to the method:
Primary human epidermal keratinocytes were obtained from Lonza. Cells were cultured in monolayer in KGM-Gold medium. For the experiment keratinocytes were differentiated by incubating for five days in KGM-Gold medium supplemented with 1.2 mM calcium chloride. Piroctone olamine was supplied by Sigma. Differentiated keratinocyte cultures were dosed with 7.5 µM piroctone olamine and 0.1% ethanol (Group 1, n=4), or with 0.1% ethanol only (Group 2, n=4) and incubated for 24 hours. Cells were then lysed in RLT buffer and subjected to RNA extraction using Qiagen RNeasy Micro Kit according to manufacturer’s instructions. The levels of gene expression were determined using Agilent SurePrint G3 Human Gene Expression 8x60k v3 Microarrays in conjunction with Agilent SureHyb hybridisation and SureScan High-Resolution scanning technology, in accordance with manufacturer’s protocol. Microarray data processing and statistical analysis was carried out in Agilent GeneSpring GX14 software. To identify differentially expressed genes in piroctone olamine treated cultures (Group 1) compared to vehicle control cultures (Group 2), t-test was applied (p≤0.05) with or without Benjamini-Hochberg false discovery rate correction (FDR≤0.05).

[3] abbreviates: 30 uM topical in PBS with 1% ethanol, vs control, Tight junction formation.
[4] abbreviates: vs 0.1% ethanol control, Comeodesmosome formation.
Where [5] appears, read: vs 0.1% ethanol control, Cornified envelop formation.
Setting [6] is: vs 0.1% ethanol control, Tight junction formation.

As to `Cc1cc(CC(C)CC(C)(C)C)n(O)c(=O)c1` (stereo not shown) [piroctone olamine, 1-hydroxy-4-methyl-6-(2,4,4-trimethylpentyl)-2(1H) pyridinone monoethanolamine salt], in assay [1] (30 uM topical in PBS with 1% ethanol, vs control, Cornified envelop formation), the “Fold Change (Group 1/Group 2) gene expression, Involucrin (IVL)” value was determined as 2.7. Besides, in assay [1] (setting [3]), the “Fold Change (Group 1/Group 2) gene expression, Claudin 1 (CLDN 1)” value amounted to 2.1 and the “Fold Change (Group 1/Group 2) gene expression, Zona Occludens 2 (ZO2 (TJP2))” value was found to be 3.5. Moreover, the “gene expression of epidermal barrier biomarkers compared to control (in words)” value in assay [1] (30 uM topical, human skin explants) is on record as “increase in gene expression”. The “gene expression of epidermal barrier biomarkers compared to control (in words)” value in assay [2] (differentiated keratinocytes) was “clear increase in gene expression”. In assay [2] (setting [4]), the “Fold Change (Group ⅟Group 2) gene expression, Desmocolin 2 (DSC2)” value was determined as 2.49; the “Fold Change (Group ⅟Group 2) gene expression, Desmoglein 4 (DSG4)” value is 2.44; the “Fold Change (Group ⅟Group 2) gene expression, Plakophilin 1 (PKP1)” value was determined as 1.75. The “Fold Change (Group ⅟Group 2) gene expression, Comeodesmosin (CDSN)” value in assay [2] (vs 0.1% ethanol control, Comeodesmosome formation, not significant) turned out to be 1.20. Besides, in assay [2] (setting [5]), the “Fold Change (Group ⅟Group 2) gene expression, Involucrin (IVL)” value was 1.40; the “Fold Change (Group ⅟Group 2) gene expression, Late cornified envelope 3A (LCE3A)” value was 2.58; the “Fold Change (Group ⅟Group 2) gene expression, Late cornified envelope 3B (LCE3B)” value came out at 1.67; the “Fold Change (Group ⅟Group 2) gene expression, Late cornified envelope 3C (LCE3C)” value stood at 2.71. For the same compound, the “Fold Change (Group ⅟Group 2) gene expression, Small proline-rich protein 2D (SPRR2D)” value in assay [2] (setting [5]) was determined as 1.52. Moreover, in assay [2] (setting [6]), the “Fold Change (Group ⅟Group 2) gene expression, Claudin 4 (CLDN4)” value was 1.76; the “Fold Change (Group ⅟Group 2) gene expression, Claudin 7 (CLDN7)” value is given as 1.65; the “Fold Change (Group ⅟Group 2) gene expression, Claudin 17 (CLDN17)” value is 2.99; the “Fold Change (Group ⅟Group 2) gene expression, Claudin 25 (CLDN25)” value is given as 2.05. In addition, the “Fold Change (Group ⅟Group 2) gene expression, Zona Occludens 1 (ZO1 (TJP1))” value in assay [2] (vs 0.1% ethanol control, Tight junction formation, not significant) came out at 1.3.
